Results on five compounds are retold here after patent US11851670B2, “Nucleic acid constructs encoding reprogramming factors linked by self-cleaving peptides” (Whitehead Institute for Biomedical Research, priority 2008, dated 2023).

The test system of assay [1] is NGFP3 secondary MEFs. The experiment in a line: Effect of drugs on dox-induced reprogramming of secondary MEFs (GFP+ colony count). Particulars: dox plus 1 μM compound for two 48 h periods. Type of assay: cell-based, mouse. The source says: We also tested whether the secondary cells could be used to assess the effect of drugs on the efficiency of reprogramming. For this we explored the effects of the DNA demethylating compound 5-Aza-deoxycytidine (5-Aza) and the histone deacetylase inhibitor trichostatin A (TSA). Because of their action on chromatin modifications both small molecules are candidates to improve the 5reprogramming efficiency.
For MEF isolation, chimeric embryos were isolated at E13.5 and the head and internal (including reproductive) organs were removed. Remaining tissue was physically dissociated and incubated in trypsin at 37° C. for 20 minutes, after which cells were resuspended in MEF media containing puromycin (2 μg/mL) and expanded for two passages prior to freezing. Secondary MEFs used for the described experiments were thawed and experiments plated 1-2 passages after thawing. Kinetic experiments (FIG. 2) were performed by plating 4×10^4 secondary MEFs per well in 6 well plates and plates were stained or analyzed at the indicated times. Cell density experiments were performed in 12 well plates and GFP+ iPS colonies were scored 4 weeks after dox induction. Single cell efficiency experiments were performed by plating single secondary MEFs onto a layer of wildtype feeder MEFS in 96 well plates prior to dox induction (using limiting dilutions, which were confirmed by eye in replicate plates lacking feeder MEFs). iPS formation was scored 4 weeks later. Representative experiments from 2-3 biological replicates are shown. For 5-Aza and TSA experiments, […] secondary MEFs were plated in 6 well plates (approx 100 cells/mm^2) and pretreated with ES cell media containing 5-Aza (1 μM) or TSA (1 μM) for 48 h. After 48 h, secondary MEFs were cultured in ES cell media plus dox lacking 5-Aza or TSA. MEFS were exposed to 5-Aza or TSA for a second 48 h period between days 8-10 after induction, followed by culture with dox only until scoring GFP+ colonies on day 21.

For assay [2], the system named is ES cells. Particulars: chemically defined medium, absence of LIF; cited from earlier work.
For assay [3], the system named is SOX2-ER fusion construct. Nature of the assay: Tamoxifen-dependent activation of SOX2-ER fusion construct in transduced fibroblasts. It counts as cell-based, human. The settings on record: cells transduced with SOX2-ER fusion construct. The text has this:
(a) DOX inducible lentivirus vectors: Following the same strategy as used for murine genes we have generated lentiviral vectors that transduce the human OCT4, SOX2, KLF4 and C-MYC c-DNAs either constitutively or under the control of a DOX inducible promoter [Brambrink, 2008 #6877]. To generate a DOX inducible system we infected human fibroblasts with a lentiviral vector carrying the rtTA transactivator. […] (b) Tamoxifen inducible lentivirus vectors: To enable independent inducible control of vectors we also generated OCT4, SOX2 and C-MYC estrogen receptor (ER) fusion constructs by fusing the factors to the estrogen ligand binding domain to allow for tamoxifen dependent expression [Grandori, 1996 #6505].

Assay [4] relates to mouse fibroblasts. Particulars: treatment decreasing global DNA methylation; cited from earlier work.
In assay [5] the test system is huES cells. Particulars: cited from earlier work.

Consider `CC(/C=C/C(=O)NO)=C\[C@@H](C)C(=O)c1ccc(N(C)C)cc1` [TSA, trichostatin A], for which the “reprogramming efficiency (number of GFP+ colonies)” value in assay [1] (GFP+ colonies scored on day 21) is “no obvious effect on the number of colonies”.

As for `Cc1cc(Nc2ncc3c(n2)N(C)C(=O)N(c2cc(NC(=O)c4cccc(C(F)(F)F)c4)ccc2C)C3)n(C)n1` [pluripotin], in assay [2], the “self renewal of ES cells” value is “sustains self renewal of ES cells”.

In the case of `CC/C(=C(\c1ccccc1)c1ccc(OCCN(C)C)cc1)c1ccccc1` [tamoxifen], in assay [3], the “localisation of SOX2 protein after tamoxifen addition” value was “translocation of the SOX2 protein from the cytoplasm to the nucleus”.

Consider `Nc1ncn([C@H]2C[C@H](O)[C@@H](CO)O2)c(=O)n1` [5-Aza, 5-Aza-deoxycytidine], for which the “reprogramming efficiency (number of GFP+ colonies)” value in assay [1] (GFP+ colonies scored on day 21) is listed as “increased the reprogramming efficiency”; in assay [1] (GFP+ colonies scored on day 21, listed as 5-Aza-deoxycytidine) it was “substantially enhances the reprogramming efficiency”. The “reprogramming of mouse fibroblasts” value in assay [4] is “enhance reprogramming of mouse fibroblasts”.

Regarding `C[C@@H](N)[C@H]1CC[C@H](C(=O)Nc2ccncc2)CC1` [Y-27632], in assay [5], the cloning efficiency entry is given as “increase cloning efficiency” and the dissociation-induced apoptosis result is listed as “markedly diminish dissociation-induced apoptosis”.
